Columns and labels:
[1] = biological target: T1, OhLys-kexB (E35A variant used for the ligand complexes) (Opisthocomus hoazin, UniProt Q91159, INS20KR/E54A); test: X-ray crystallography, co-crystallisation; format: biochemical; details: added as chitohexaose; hydrolysed by residual activity, so only sugars in -1 to -3 (weak -4) seen; intact hexamer not observed; mature numbering
T1 construct: gene LYZ; mature enzyme, 126 residues in wild type, secreted from Aspergillus oryzae; Lys-Arg inserted between Glu1 and Ile2 (uncleaved kexB site), N-terminus EKRIIPRCELV; monomer in asymmetric unit
T1 sequence (Q91159 other isoform, or with tags, fused parts or gaps INS20KR/E54A): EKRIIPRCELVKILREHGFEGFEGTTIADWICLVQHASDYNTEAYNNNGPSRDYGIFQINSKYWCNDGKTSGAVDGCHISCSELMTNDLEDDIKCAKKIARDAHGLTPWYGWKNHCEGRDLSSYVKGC

[2] = biological target: T1, OhLys-kexB (E35A variant used for the ligand complexes); test: X-ray crystallography, co-crystallisation; format: binding; details: density essentially identical to the chitohexaose co-crystal, subsites -1 to -3 (poorly ordered -4); not fully refined; mature numbering

| Compound | X-ray crystallography, co-crystallisation [1] | X-ray crystallography, co-crystallisation [2] |
| --- | --- | --- |
| CC(=O)N[C@H]1[C@H](O[C@H]2[C@H](O)[C@@H](NC(C)=O)[C@H](O[C@H]3[C@H](O)[C@@H](NC(C)=O)C(O)O[C@@H]3CO)O[C@@H]2CO)O[C@H](CO)[C@@H](O[C@@H]2O[C@H](CO)[C@@H](O[C@@H]3O[C@H](CO)[C@@H](O[C@@H]4O[C@H](CO)[C@@H](O)[C@H](O)[C@H]4NC(C)=O)[C@H](O)[C@H]3NC(C)=O)[C@H](O)[C@H]2NC(C)=O)[C@@H]1O (some centres unmarked) [chitohexaose] | hydrolyse; at the high protein concentrations of a prolonged crystallization, the chitohexaose substrate | – |
| CC(=O)N[C@H]1[C@H](O[C@H]2[C@H](O)[C@@H](NC(C)=O)C(O)O[C@@H]2CO)O[C@H](CO)[C@@H](O[C@@H]2O[C@H](CO)[C@@H](O[C@@H]3O[C@H](CO)[C@@H](O)[C@H](O)[C@H]3NC(C)=O)[C@H](O)[C@H]2NC(C)=O)[C@@H]1O (some centres unmarked) [chitotetraose] | – | The density for the chitotetraose ligand is essentially identical to this |
